Assay results taken from article PMC5290327, “SC83288 is a clinical development candidate for the treatment of severe malaria” (Nature Communications, 2017).
“Also recorded” adds a separate entry of the source. Read-outs that look alike come from different tables or passages of the source.

Legend:
Measured pK = format: physicochemical
Protocol: SC81458 and SC83288 were soluble in water (890 and 940 μg ml^−1, respectively) and organic solvents. […] The compounds were stable in different physiological solutions, including artificial gastric juice, simulated intestinal fluid, phosphate-buffered saline and human plasma, when incubated for 6 h at 37 °C.

in vivo = format: in vivo, rat; conditions: for C0: rat, in vivo, iv; for ALB / ALB/GLOB / ALP / ALT / AMY / AST / BUN / BUN/CREA / CA / CK / CRE / EOS / GLOB / GLU / HCT / HGB / K+ / MCH / MCHC / MCV / MPV / NA+ / NA/K / PHOS / PLT / RBC / RDW / TBIL / TP / WBC: 24h
Protocol: The maximal-tolerated i.v. bolus dose of SC83288 was at 30 mg kg^−1 body weight (extrapolated initial drug plasma concentration C0 of 65,600 ng ml^−1) and 15 mg kg^−1 body weight (C0 of 27,300 ng ml^−1) in rats and mice, respectively. Observed adverse effects included ataxia, respiratory symptoms and sleepiness. However, all treated animals fully recovered within 30 min after drug application. […] Increasing the dose to 45 mg kg^−1 body weight caused apnoea in rats. The no-observed-adverse-effect level and the no-observed-effect level in rats corresponded to a tested i.v. bolus dose of 22.5 mg kg^−1 body weight (C0 of 49,200 ng ml^−1) and 15 mg kg^−1 body weight (C0 of 32,800 ng ml^−1), respectively.
(§1) On the treatment day, all animals were weighed and the dosing volume was calculated for each individual animal according to its actual body weight. All animal were dosed once. Blood samples were taken at different time points and plasma was collected after centrifugation (10,000g, 10 min, 4 °C). Plasma samples were analysed by LC–MS/MS. […] All relevant observations were recorded. The PK studies in cynomolgus monkeys and beagle dogs were performed by the Laboratory of Pharmacology and Toxicology (LPT), Hamburg, and PK and toxicity studies in mice and rats were performed by the 4SC Discovery GmbH, Munich. PK parameters were obtained by a non-compartment analysis, using Kinetica 4.1 (Thermo Scientific).

PK study [1] = format: in vivo, rat; conditions: rat i.v. 2 mg kg^−1; for half-life: rat, 2 mg/kg
Protocol: as §1

Dd2 trophozoites = test: In vitro speed of action, clearance of trophozoites (Vial protocol); format: cell-based, Plasmodium falciparum; conditions: 500 nM
PK study [2] = format: in vivo, cynomolgus; conditions: for half-life: 2 mg/kg
Protocol: as §1

P. falciparum strain W2 = test: Efficacy in the Pf/NSG mouse model; format: in vivo, Plasmodium falciparum; conditions: W2, humanized NSG mouse
P. falciparum strain 3D7 = test: Efficacy in the Pf/NSG mouse model; format: in vivo, Plasmodium falciparum; conditions: 3D7, humanized NSG mouse
[3] = cynomolgus monkey, plasma, iv, cynomolgus i.v. 2 mg kg^−1

## COC(=O)N1CCN(C(=N)c2cccc(NC(=O)Nc3ccc(S(=O)(=O)NCc4ccc(S(N)(=O)=O)cc4)cc3)c2)CC1 [SC83288, methyl 4-(imino(3-(3-(4-(N-(4-sulfamoylbenzyl)sulfamoyl)phenyl)ureido)phenyl)methyl) piperazine-1-carboxylate]
Measured pK
  pK: 9.82
In vivo; 24 h post application
  haematological and clinical biochemical parameters: remained within normal range
In vivo; projected dosing regimen vs i.v. NOAEL in rats
  safety margin: ~55 fold
In vivo; rats, 15 mg kg^−1 i.v. bolus (NOEL), read-out: extrapolated C0
  C0: 32800 ng/mL
In vivo; rats, 22.5 mg kg^−1 i.v. bolus (NOAEL), read-out: extrapolated C0
  C0: 49200 ng/mL
In vivo; rats, 30 mg kg^−1 i.v. bolus, read-out: extrapolated initial drug plasma concentration C0
  C0: 65600 ng/mL
In vivo; rats
  maximal-tolerated i.v. bolus dose: 30 mg kg^−1 body weight
In vivo; rats and mice at maximal-tolerated dose
  time to full recovery after drug application: ≤ 30 min
In vivo; rats, 45 mg kg^−1 body weight
  adverse effect: apnea; also recorded: apnoea
In vivo; rats, 15 mg/kg
  ALB: 4.9 g/dL
  ALB/GLOB: 5.5 g/dL
  ALP: 306 U l-1
  ALT: 51 U l-1
  AMY: 909 U l-1
  AST: 70 U l-1
  BUN: 14.7 mg/dL
  BUN/CREA: 66.7 mg/dL
  CA: 11.0 mg/dL
  CK: 176 U l-1
  CRE: 0.2 mg/dL
  EOS: 0.4%
  GLOB: 0.9 g/dL
  GLU: 202 mg/dL
  HCT: 40.9%
  HGB: 14.3 g/dL
  K+: 5.1 mmol/L
  MCH: 20.5 pg
  MCHC: 35.1 g/dL
  MCV: 58 µm3
  MPV: 5.7 µm3
  NA+: 136 mmol/L
  NA/K: 26.7 mmol/L
  PHOS: 9.4 mg/dL
  PLT: 812 103 mm-3
  RBC: 7.00 103 mm-3
  RDW: 13.3%
  TBIL: 0.4 mg/dL
  TP: 5.8 g/dL
  WBC: 16.7 103 mm-3
In vivo; rats, 22.5 mg/kg
  ALB: 5.0 g/dL
  ALB/GLOB: 6.7 g/dL
  ALP: 399 U l-1
  ALT: 58 U l-1
  AMY: 921 U l-1
  AST: 79 U l-1
  BUN: 17.5 mg/dL
  BUN/CREA: 72.5 mg/dL
  CA: 11.0 mg/dL
  CK: 97 U l-1
  CRE: 0.3 mg/dL
  EOS: 0.3%
  GLOB: 0.8 g/dL
  GLU: 160 mg/dL
  HCT: 39.6%
  HGB: 14.2 g/dL
  K+: 5.3 mmol/L
  MCH: 21.0 pg
  MCHC: 35.9 g/dL
  MCV: 59 µm3
  MPV: 5.9 µm3
  NA+: 135 mmol/L
  NA/K: 25.7 mmol/L
  PHOS: 9.2 mg/dL
  PLT: 847 103 mm-3
  RBC: 6.77 103 mm-3
  RDW: 13.3%
  TBIL: 0.3 mg/dL
  TP: 5.7 g/dL
  WBC: 14.3 103 mm-3
In vivo; rats, 30 mg/kg
  ALB: 5.4 g/dL
  ALB/GLOB: 8.9 g/dL
  ALP: 424 U l-1
  ALT: 58 U l-1
  AMY: 962 U l-1
  AST: 85 U l-1
  BUN: 15.7 mg/dL
  BUN/CREA: 78.3 mg/dL
  CA: 11.2 mg/dL
  CK: 91 U l-1
  CRE: 0.2 mg/dL
  EOS: 0.3%
  GLOB: 0.6 g/dL
  GLU: 170 mg/dL
  HCT: 40.1%
  HGB: 14.3 g/dL
  K+: 5.4 mmol/L
  MCH: 20.5 pg
  MCHC: 35.8 g/dL
  MCV: 57 µm3
  MPV: 5.7 µm3
  NA+: 136 mmol/L
  NA/K: 25.2 mmol/L
  PHOS: 9.0 mg/dL
  PLT: 869 103 mm-3
  RBC: 7.00 103 mm-3
  RDW: 13.4%
  TBIL: 0.3 mg/dL
  TP: 6.0 g/dL
  WBC: 11.2 103 mm-3
In vivo; rats, i.v. bolus
  no-observed-adverse-effect level: 22.5 mg kg^−1 body weight
  no-observed-effect level: 15 mg kg^−1 body weight
PK study [1]; plasma, iv
  AUC(0-inf): 1420 ng·h/mL
  C0: 4380 ng/mL
  Cmax: 3280 ng/mL
  Tmax: 5 min
  clearance: 23.5 mL/min/kg
PK study [1]; plasma, iv, read-out: MRT0-t
  MRT last: 75 min
PK study [1]
  VC: 0.457 L/kg
PK study [1]; plasma, iv, read-out: t1/2 effective
  half-life: 52 min
PK study [1]; plasma, iv, read-out: t1/2 initial
  half-life: 9 min
PK study [1]; plasma, iv, read-out: t1/2 terminal
  half-life: 625 min
Dd2 trophozoites
  exposure time to clear a 0.5% parasitemia: ≤ 3 ± 1 h
PK study [2]; cynomolgus monkey, plasma, iv, cynomolgus i.v. 2 mg kg^−1, read-out: t1/2 effective
  half-life: 62 min
PK study [2]; cynomolgus monkey, plasma, iv, cynomolgus i.v. 2 mg kg^−1, read-out: t1/2 initial
  half-life: 16 min
PK study [2]; cynomolgus monkey, plasma, iv, cynomolgus i.v. 2 mg kg^−1, read-out: t1/2 terminal
  half-life: 320 min
PK study [2]; [3]
  AUC(0-inf): 4250 ng·h/mL
  C0: 7340 ng/mL
  Cmax: 6570 ng/mL
  Tmax: 5 min
  clearance: 7.83 mL/min/kg
PK study [2]; cynomolgus monkey, plasma, iv, cynomolgus i.v. 2 mg kg^−1, read-out: MRT0-t
  MRT last: 90 min
PK study [2]; cynomolgus, i.v. 2 mg kg^−1
  C0 as multiple of the free MPC: ~17 times
  VC: 0.273 L/kg

## CCCCN1CCN(C(=N)c2cccc(NC(=O)Nc3ccc(S(=O)(=O)NCc4ccc(S(N)(=O)=O)cc4)cc3)c2)CC1 [SC81458, 4-(3-(3-((4-butylpiperazin-1-yl)(imino)methyl)phenyl)ureido)-N-(4-sulfamoylbenzyl) benzenesulfonamide]
P. falciparum strain W2
  In vivo logPRR: 5.3
P. falciparum strain 3D7
  In vivo logPRR: 3.2
